Molecules are shown by their SMILES.

As a reminder, the EC50 is the midpoint of the concentration-response curve.

This experiment concerns the target T1, human orexin type 2 receptor (hOX2R) (Homo sapiens, UniProt O43614).
T1 construct: expressed in transfected cells
T1 sequence (O43614 1-444): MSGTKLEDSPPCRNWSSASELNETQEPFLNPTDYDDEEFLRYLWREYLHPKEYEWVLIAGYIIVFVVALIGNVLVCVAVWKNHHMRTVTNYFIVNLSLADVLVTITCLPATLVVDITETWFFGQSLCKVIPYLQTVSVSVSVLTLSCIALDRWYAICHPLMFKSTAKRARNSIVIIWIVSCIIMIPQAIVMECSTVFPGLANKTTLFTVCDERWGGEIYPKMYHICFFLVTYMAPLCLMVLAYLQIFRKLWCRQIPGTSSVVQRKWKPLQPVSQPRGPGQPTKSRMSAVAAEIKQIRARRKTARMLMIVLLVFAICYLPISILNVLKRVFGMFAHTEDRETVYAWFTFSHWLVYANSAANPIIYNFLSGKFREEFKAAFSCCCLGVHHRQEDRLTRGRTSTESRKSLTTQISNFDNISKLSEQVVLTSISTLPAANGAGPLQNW
The experiment is described as follows: Measurement of orexin type 2 receptor agonist activity (calcium fluorescence, Fluo-4 AM, FDSS). In kind it is cell-based. The note with it: CHO cells forcibly expressing human OX2 receptor; 100% = orexin A (human) 10 nM, 0% = DMSO. The text has this: To obtain a cell clone stably expressing human orexin type 2 receptor, human orexin type 2 receptor cDNA was inserted into pcDNA3.1(+) plasmid vector (Invitrogen), and a plasmid DNA for expression of human orexin type 2 receptor (pcDNA3.1(+)/hOX2R) was cloned. The plasmid DNA was introduced into CHO-dhfr cell by an electroporation method, and human orexin type 2 receptor expressing clone cells were obtained by limiting dilution method by using G418 drug resistance as a selection marker.
CHO cells forcibly expressing human OX2 receptor were seeded in each well of 384 well black transparent bottom plate (BD Falcon) at 7,500 cells/well, and cultured for one day in a 5% CO2 incubator at 37° C. After removal of the medium in the cell plate, assay buffer A containing a calcium indicator (HBSS (Thermo Fisher Scientific), 20 mM HEPES (Thermo Fisher Scientific), 0.1% BSA (Wako Pure Chemical Industries, Ltd. or Sigma-Aldrich), 2.5 μg/mL Fluo-4 AM (DOJINDO Chemical), 0.08% Pluronic F127 (DOJINDO Chemical), 1.25 mM probenecid (DOJINDO Chemical)) was added at 30 μL/well. The plate was stood for 30 min in a 5% CO2 incubator at 37° C., and further stood at room temperature for 30 min. A test compound prepared by diluting with assay buffer B (HBSS, 20 mM HEPES, 0.1% BSA) was added at 10 μL/well, and the fluorescence value was measured by FDSSμCELL (Hamamatsu Photonics K.K.) every one sec for 1 min, and thereafter every two sec for 1 min 40 sec. The activity (%) of the test compound was calculated assuming that variation in the fluorescence value when DMSO was added instead of the test compound was 0%, and variation in the fluorescence value when orexin A (human) (PEPTIDE INSTITUTE, INC.) was added at the final concentration of 10 nM was 100%. Unless otherwise specified, the maximum agonist activity of each compound was 90% or more, when the maximum agonist activity of orexin A was considered as 100%.
Consider `CS(=O)(=O)N[C@H]1CCN(C(=O)C2CCC2)[C@H]1CO[C@H]1CC[C@@H](c2ccccc2)CC1` (relative stereo) [Example 7, N-(cis-1-(cyclobutylcarbonyl)-2-(((cis-4-phenylcyclohexyl)oxy)methyl)pyrrolidin-3-yl)methanesulfonamide], for which the EC50 was 0.04 µM.
For the compound `CS(=O)(=O)N[C@H]1CCN(C(=O)CC(F)(F)F)[C@H]1CO[C@H]1CC[C@@H](c2ccccc2)CC1` (relative stereo) [Example 5, N-(cis-2-(((cis-4-phenylcyclohexyl)oxy)methyl)-1-(3,3,3-trifluoropropanoyl)pyrrolidin-3-yl)methanesulfonamide], the EC50 came to 0.76 µM.
The same measure for `CS(=O)(=O)N[C@H]1CCN(C(=O)C2CC2)[C@H]1CO[C@H]1CC[C@@H](c2ccccc2)CC1` (relative stereo) [Example 4, N-(cis-1-(cyclopropylcarbonyl)-2-(((cis-4-phenylcyclohexyl)oxy)methyl)pyrrolidin-3-yl)methanesulfonamide]: 0.047 µM; for `CS(=O)(=O)N[C@H]1CCN[C@H]1CO[C@H]1CC[C@@H](c2ccccc2)CC1` (relative stereo) [Example 2, N-(cis-2-(((cis-4-phenylcyclohexyl)oxy)methyl)pyrrolidin-3-yl)methanesulfonamide]: 3.6 µM.
Regarding `CCOC(=O)N1CC[C@H](NS(C)(=O)=O)[C@@H]1CO[C@H]1CC[C@@H](c2ccccc2)CC1` (relative stereo) [Example 3, ethyl cis-3-((methylsulfonyl)amino)-2-(((cis-4-phenylcyclohexyl)oxy)methyl) pyrrolidine-1-carboxylate], the EC50 is 0.24 µM.
The same measure for `COC(=O)N1CC[C@H](NS(C)(=O)=O)[C@@H]1CO[C@H]1CC[C@@H](c2ccccc2)CC1` (relative stereo) [Example 1, methyl cis-3-((methylsulfonyl)amino)-2-(((cis-4-phenylcyclohexyl)oxy)methyl)pyrrolidine-1-carboxylate]: 0.13 µM; for `CN(C)C(=O)N1CC[C@H](NS(C)(=O)=O)[C@@H]1CO[C@H]1CC[C@@H](c2ccccc2)CC1` (relative stereo) [Example 8, cis-N,N-dimethyl-3-((methylsulfonyl)amino)-2-(((cis-4-phenylcyclohexyl)oxy)methyl)pyrrolidine-1-carboxamide]: 0.013 µM.
Then `CN(C)C(=O)N1CC[C@H](NS(C)(=O)=O)[C@@H]1COC1CCN(c2ncc(F)cn2)CC1` (relative stereo) [Example 11, cis-2-(((1-(5-fluoropyrimidin-2-yl)piperidin-4-yl)oxy)methyl)-3-((methanesulfonyl)amino)-N,N-dimethylpyrrolidine-1-carboxamide], with 0.082 µM.
Then `CS(=O)(=O)N[C@H]1CCN(C(=O)N2CCC2)[C@H]1CO[C@H]1CC[C@@H](c2ccccc2)CC1` (relative stereo) [Example 6, N-(cis-1-(azetidin-1-ylcarbonyl)-2-(((cis-4-phenylcyclohexyl)oxy)methyl)pyrrolidin-3-yl)methanesulfonamide], with 0.017 µM; and `CC(C)(O)C(=O)N1CC[C@H](NS(C)(=O)=O)[C@@H]1CO[C@H]1CC[C@@H](c2ccccc2)CC1` (relative stereo) [Example 10, N-(cis-1-(2-hydroxy-2-methylpropanoyl)-2-(((cis-4-phenylcyclohexyl)oxy)methyl)pyrrolidin-3-yl)methanesulfonamide], with 0.41 µM; and `CN(C)C(=O)N1CC[C@H](NS(C)(=O)=O)[C@@H]1CO[C@H]1CC[C@@H](c2ccccc2C(F)(F)F)CC1` (relative stereo) [Example 9, cis-3-((methanesulfonyl)amino)-N,N-dimethyl-2-(((cis-4-(2-(trifluoromethyl)phenyl)cyclohexyl)oxy)methyl)pyrrolidine-1-carboxamide], with 0.27 µM.

The values above are taken from US11319286B2, “Heterocyclic compound and application thereof” (Takeda Pharmaceutical Company Limited, priority 2017, dated 2022).
